This is an account of results in ChEMBL document CHEMBL3046701, “Synthesis and biological activities of some N-hydroxymethylene and N-methoxymethylene thiazines” (Med Chem Res, 2007).

A word on the LD50: it is the dose expected to kill half of the subjects tested.

Data set [1] is described as follows: Toxicity in po dosed Mus musculus albino (mouse). In kind it is organism-based. As to conditions: in vivo.
Data set [2] has as its system Staphylococcus aureus. Put plainly: Antibacterial activity against Staphylococcus aureus after 24 hr by disk diffusion method. In kind it is functional. In general terms: A growth-free zone around the sample is the usual read-out of agar diffusion tests.
The subject of data set [3] is Bacillus subtilis. The experiment in a line: Antibacterial activity against Bacillus subtilis after 24 hr by disk diffusion method. In kind it is functional.
Data set [4] relates to Klebsiella pneumoniae. The experiment in a line: Antibacterial activity against Klebsiella pneumoniae after 24 hr by disk diffusion method. In kind it is functional.
The subject of data set [5] is Escherichia coli. Put plainly: Antibacterial activity against Escherichia coli after 24 hr by disk diffusion method. In kind it is functional.
The test system of data set [6] is Aspergillus flavus. Put plainly: Antifungal activity against Aspergillus flavus after 72 to 96 hr by disk diffusion method. In kind it is functional.
Data set [7] concerns Penicillium. The experiment in a line: Antifungal activity against Penicillium inclobium after 72 to 96 hr by disk diffusion method. In kind it is functional.
The subject of data set [8] is Escherichia coli. Put plainly: Antibacterial activity against Escherichia coli at 50 ug/ml after 24 hr by disk diffusion method. In kind it is functional. The conditions noted are these: read-out: IZ.
Data set [9] relates to Klebsiella pneumoniae. Put plainly: Antibacterial activity against Klebsiella pneumoniae at 50 ug/ml after 24 hr by disk diffusion method. The conditions noted are these: read-out: IZ. In kind it is functional.
In data set [10] the test system is Bacillus subtilis. Put plainly: Antibacterial activity against Bacillus subtilis at 50 ug/ml after 24 hr by disk diffusion method. In kind it is functional. As to conditions: read-out: IZ.
Data set [11] has as its system Aspergillus flavus. The experiment in a line: Antifungal activity against Aspergillus flavus at 50 ug/ml after 72 to 96 hr by disk diffusion method. The conditions noted are these: read-out: IZ. In kind it is functional.
Data set [12] concerns Staphylococcus aureus. Put plainly: Antibacterial activity against Staphylococcus aureus at 50 ug/ml after 24 hr by disk diffusion method. In kind it is functional. The conditions noted are these: read-out: IZ.
The subject of data set [13] is Penicillium. The experiment in a line: Antifungal activity against Penicillium inclobium at 50 ug/ml after 72 to 96 hr by disk diffusion method. In kind it is functional. The conditions noted are these: read-out: IZ.
Data set [14] has as its system Bacillus subtilis. The experiment in a line: Antibacterial activity against Bacillus subtilis at 25 ug/ml after 24 hr by disk diffusion method. In kind it is functional. As to conditions: read-out: IZ.
In data set [15] the test system is Aspergillus flavus. The experiment in a line: Antifungal activity against Aspergillus flavus at 25 ug/ml after 72 to 96 hr by disk diffusion method. In kind it is functional. As to conditions: read-out: IZ.
Data set [16] deals with Staphylococcus aureus. The experiment in a line: Antibacterial activity against Staphylococcus aureus at 25 ug/ml after 24 hr by disk diffusion method. In kind it is functional. The conditions noted are these: read-out: IZ.
The subject of data set [17] is Escherichia coli. Put plainly: Antibacterial activity against Escherichia coli at 25 ug/ml after 24 hr by disk diffusion method. As to conditions: read-out: IZ. In kind it is functional.
For data set [18], the system named is Klebsiella pneumoniae. The experiment in a line: Antibacterial activity against Klebsiella pneumoniae at 25 ug/ml after 24 hr by disk diffusion method. As to conditions: read-out: IZ. In kind it is functional.
Data set [19] relates to Penicillium. The experiment in a line: Antifungal activity against Penicillium inclobium at 25 ug/ml after 72 to 96 hr by disk diffusion method. In kind it is functional. As to conditions: read-out: IZ.
In data set [20] the test system is Aspergillus flavus. The experiment in a line: Antifungal activity against Aspergillus flavus at 100 ug/ml after 72 to 96 hr by disk diffusion method. In kind it is functional. The conditions noted are these: read-out: IZ.
Data set [21] deals with Staphylococcus aureus. Put plainly: Antibacterial activity against Staphylococcus aureus at 100 ug/ml after 24 hr by disk diffusion method. In kind it is functional. As to conditions: read-out: IZ.
Data set [22] relates to Penicillium. Put plainly: Antifungal activity against Penicillium inclobium at 100 ug/ml after 72 to 96 hr by disk diffusion method. In kind it is functional. The conditions noted are these: read-out: IZ.
Data set [23] has as its system Bacillus subtilis. The experiment in a line: Antibacterial activity against Bacillus subtilis at 100 ug/ml after 24 hr by disk diffusion method. In kind it is functional. As to conditions: read-out: IZ.
Data set [24] has as its system Escherichia coli. Put plainly: Antibacterial activity against Escherichia coli at 100 ug/ml after 24 hr by disk diffusion method. In kind it is functional. As to conditions: read-out: IZ.
Data set [25] deals with Klebsiella pneumoniae. The experiment in a line: Antibacterial activity against Klebsiella pneumoniae at 100 ug/ml after 24 hr by disk diffusion method. The conditions noted are these: read-out: IZ. In kind it is functional.

As to `O=S1(=O)CC(c2ccc(Cl)cc2)N(CO)C(c2ccc(Cl)cc2)C1` (stereo unspecified), in data set [1], the LD50 was at most 1000 mg/kg.
Take `CCn1cc(C(=O)O)c(=O)c2cc(F)c(N3CCNCC3)cc21` [NORFLOXACIN]: the “inhibition zone (IZ)” value in data set [2], in [3], in [4] and in data set [5] was 22 mm each time.
In the case of `COC1=CC(=O)C[C@@H](C)[C@]12Oc1c(Cl)c(OC)cc(OC)c1C2=O` [GRISEOFULVIN], the “inhibition zone (IZ)” value in data set [6] and in [7] was 22 mm each time.
As for `COCN1C(c2ccc(OC)cc2)CS(=O)(=O)CC1c1ccc(OC)cc1` (stereo unspecified), the zone of inhibition at 50 µg/mL in data set [8] turned out to be 11 mm; in data set [9], 11 mm; in [10], 12 mm; in data set [11] it was 10 mm; in data set [12], 12 mm; in data set [13], 11 mm.
Take `COCN1C(c2ccc(Cl)cc2)CS(=O)(=O)CC1c1ccc(Cl)cc1` (stereo unspecified): the zone of inhibition at 25 µg/mL turned out to be 15 mm in data set [14]; 12 mm in [15]; 15 mm in [16]; 16 mm in data set [17]; 16 mm in data set [18]; 14 mm in data set [19].
With `COCN1C(c2ccccc2)CS(=O)(=O)CC1c1ccccc1` (stereo unspecified), the zone of inhibition at 100 µg/mL in data set [20] was determined as 6 mm; in data set [21], 7 mm; in [22], 7 mm; in data set [23], 6 mm; in data set [24], 9 mm; in data set [25] it was 7 mm.
For `O=S1(=O)CC(c2ccc(Cl)cc2)NC(c2ccc(Cl)cc2)C1` (stereo unspecified), the LD50 in data set [1] is at most 1000 mg/kg.
